According to ChEMBL document CHEMBL4483862, “Open-source discovery of chemical leads for next-generation chemoprotective antimalarials” (2018):

System: Plasmodium berghei
Test: Luciferase/luciferin-expressing antifolate-resistant parasites were used to infect a culture of HepG2 cells that were pre-incubated with compounds. Infected hepatocytes emit light due to the luciferase reaction. Assay results are presented as the percent inhibition of light emission compared to control. […]
Assay type: functional
Conditions: sporozoite; for IC90: read-out: LUCIFERASE INFECTION ASSAY - IC90
[1] = read-out: LUCIFERASE INFECTION ASSAY - IC50

SMILES	IC90 [µM]	IC50 [1] [µM]	also measured
Cc1cc(NC(=O)N2CCN(Cc3ccc(-c4ccccc4Cl)s3)CC2)no1	> 10		IC50 (HEPG2TOX_HILL_SLOPE 17.1, HEPG2TOX_R_SQUARED 0.65, PBLUC_HILL_SLOPE 0.759, PBLUC_R_SQUARED 0.724, read-out: LUCIFERASE INFECTION ASSAY - IC50): 1.19 µM
Brc1ccc(OCc2ccccc2)c(CNCc2ccccn2)c1	6.94		IC50 (PBLUC_HILL_SLOPE 4.81, PBLUC_R_SQUARED 0.436, read-out: LUCIFERASE INFECTION ASSAY - IC50): 4.39 µM
CN(C)c1ccc(CNc2nccc3nc(-c4ccc(F)c(F)c4)[nH]c23)cc1	9.24		IC50 (HEPG2TOX_HILL_SLOPE 2.98, HEPG2TOX_R_SQUARED 0.951, PBLUC_HILL_SLOPE 0.962, PBLUC_R_SQUARED 0.864, read-out: LUCIFERASE INFECTION ASSAY - IC50): 0.941 µM
CCCn1c(N)c(N2CCCCC2)c(=O)n(Cc2nc(N)nc(Nc3ccccc3)n2)c1=O	3.51	2.17	
N#Cc1ccc(F)c(CN2CCN(Cc3nc(-c4ccc(Cl)cc4)no3)CC2)c1	> 10	> 10	
O=C(Nc1ccc(F)cc1)Nc1cnn(-c2ccc(Cl)cc2)c1C(F)(F)F	2.1		IC50 (PBLUC_HILL_SLOPE 1.06, PBLUC_R_SQUARED 0.652, read-out: LUCIFERASE INFECTION ASSAY - IC50): 0.266 µM
Cc1cc(C(=O)COc2ccc(C(N)=O)cc2)c(C)n1-c1ccc2c(c1)OCO2	5.43		IC50 (HEPG2TOX_HILL_SLOPE 1.28, HEPG2TOX_R_SQUARED 0.792, PBLUC_HILL_SLOPE 4.73, PBLUC_R_SQUARED 0.266, read-out: LUCIFERASE INFECTION ASSAY - IC50): 3.41 µM
Cc1nc(SCC(=O)Nc2nc(Br)sc2Cc2ccc([N+](=O)[O-])cc2)sc1Cc1ccccc1	> 10		IC50 (FFLUC_HILL_SLOPE 16.2, FFLUC_R_SQUARED 0.412, read-out: LUCIFERASE INFECTION ASSAY - IC50): > 10 µM
CC1CCN(CCOc2ccc(-c3n[nH]cc3-c3ccccc3)c(O)c2)CC1	> 8.74		IC50 (PBLUC_HILL_SLOPE 1.57, PBLUC_R_SQUARED 0.734, read-out: LUCIFERASE INFECTION ASSAY - IC50): > 8.74 µM
Cc1cnc(NC(=O)c2ccccc2NS(=O)(=O)c2cccc(C(F)(F)F)c2)s1	> 10		IC50 (HEPG2TOX_HILL_SLOPE 2.85, HEPG2TOX_R_SQUARED 0.86, read-out: LUCIFERASE INFECTION ASSAY - IC50): > 10 µM
CC(C)c1ccc(Nc2ncnc(N)n2)c(Br)c1	> 10.7	> 10.7	
N#CC(C(=O)COC(=O)c1cn(-c2ccccc2)nc1-c1ccccc1)=C1Nc2ccccc2N1	> 10	> 10	
COc1ccc(-c2cnn3ccc(NCc4cccnc4)nc23)cc1OC	5.49		IC50 (HEPG2TOX_HILL_SLOPE 1.45, HEPG2TOX_R_SQUARED 0.956, PBLUC_HILL_SLOPE 2.78, PBLUC_R_SQUARED 0.698, read-out: LUCIFERASE INFECTION ASSAY - IC50): 2.49 µM
C=CCNc1nc(C(=O)OCc2cc(=O)n3cc(Br)ccc3n2)cs1	> 10	> 10	
CN(C)CCCn1c(SCC(=O)N2c3ccccc3Sc3ccccc32)nc2ccccc2c1=O	9.41		IC50 (PBLUC_HILL_SLOPE 9.03, PBLUC_R_SQUARED 0.19, read-out: LUCIFERASE INFECTION ASSAY - IC50): 7.38 µM
O=C(Nc1ccccc1)Nc1nc2ccc([N+](=O)[O-])cc2s1	7.31		IC50 (HEPG2TOX_HILL_SLOPE 6.06, HEPG2TOX_R_SQUARED 0.204, PBLUC_HILL_SLOPE 4.24, PBLUC_R_SQUARED 0.473, read-out: LUCIFERASE INFECTION ASSAY - IC50): 4.36 µM
CC(=O)Nc1ccc(OC(=O)c2cc(C(C)(C)C)nn2Cc2c(C)cc(C)cc2C)cc1	3.69		IC50 (FFLUC_HILL_SLOPE 42.8, FFLUC_R_SQUARED 0.589, PBLUC_HILL_SLOPE 8.27, PBLUC_R_SQUARED 0.64, read-out: LUCIFERASE INFECTION ASSAY - IC50): 2.83 µM
Cc1cc(/C=C/c2cc(C(=O)O)c3ccccc3n2)cc(C)c1OC(F)F	3.87		IC50 (HEPG2TOX_HILL_SLOPE 0.464, HEPG2TOX_R_SQUARED 0.656, PBLUC_HILL_SLOPE 13.4, PBLUC_R_SQUARED 0.624, read-out: LUCIFERASE INFECTION ASSAY - IC50): 3.28 µM
O=C(O)c1ccc(N=C2C=C(NS(=O)(=O)c3ccc(Cl)cc3)c3ccccc3C2=O)cc1	> 10	> 10	
O=C(Nc1nc2ccc(Oc3ccccc3)cc2s1)C1=COCCO1	> 10		IC50 (PBLUC_HILL_SLOPE 0.789, PBLUC_R_SQUARED 0.599, read-out: LUCIFERASE INFECTION ASSAY - IC50): 5.28 µM
CC1(C)CCc2cc(/C=N/C(C#N)C(=N)C#N)ccc2O1 (stereo not drawn)	> 11.8		IC50 (FFLUC_HILL_SLOPE 1.61, FFLUC_R_SQUARED 0.207, read-out: LUCIFERASE INFECTION ASSAY - IC50): > 11.8 µM
c1ccc2c3c(ccc2c1)CCc1ccc2ccccc2c1-3	> 11.8		IC50 (FFLUC_HILL_SLOPE 12.1, FFLUC_R_SQUARED 0.622, read-out: LUCIFERASE INFECTION ASSAY - IC50): > 11.8 µM

SMILES	IC90 [µM]	IC50 [1] [µM]	also measured
Cc1noc(C)c1COc1cccc(C(=O)Nc2cccc(S(=O)(=O)Nc3cccc(C(F)(F)F)c3)c2)c1	> 10		IC50 (FFLUC_HILL_SLOPE 1.54, FFLUC_R_SQUARED 0.286, HEPG2TOX_HILL_SLOPE 4.14, HEPG2TOX_R_SQUARED 0.909, PBLUC_HILL_SLOPE 1.42, PBLUC_R_SQUARED 0.59, read-out: LUCIFERASE INFECTION ASSAY - IC50): 6.04 µM
CN(C)c1ccccc1-c1cnc2sc(NC3CCC(O)CC3)nn12 (stereo not drawn)	> 9.23	8.17	
N#Cc1ccc(-c2cnc3cnc(-c4cccc(N)c4)cn23)cc1	4.97	2.59	
O=C(COC(=O)c1cc(-c2ccccc2)c(N2CCOCC2)s1)c1ccc2c(c1)OCCO2	> 10	> 10	
Cc1ccc(S(=O)(=O)Oc2c(C(C)C)cc(Nc3cc(C)ccc3C)cc2C(C)C)cc1	> 10		IC50 (HEPG2TOX_HILL_SLOPE 0.156, HEPG2TOX_R_SQUARED 0.126, PBLUC_HILL_SLOPE 13.1, PBLUC_R_SQUARED 0.436, read-out: LUCIFERASE INFECTION ASSAY - IC50): 9 µM
COc1ccc(NC(=O)c2ccc(CN(C)C3CCCCCC3)cc2)cc1	> 2		IC50 (PBLUC_HILL_SLOPE 0.775, PBLUC_R_SQUARED 0.25, read-out: LUCIFERASE INFECTION ASSAY - IC50): 1.73 µM
CCOc1ccccc1C(=O)N(C)Cc1nc(-c2ccccc2)no1	> 9.78	> 9.78	
CCN1CCN(c2nc(CC(C)C)c3c(c2C#N)CCCC3)CC1	> 10.1	> 10.1	
Cc1cc(C)c(NC(=NC2CCCCC2)Nc2c(C)cc(C)cc2C)c(C)c1	9.33		IC50 (PBLUC_HILL_SLOPE 26.1, PBLUC_R_SQUARED 0.486, read-out: LUCIFERASE INFECTION ASSAY - IC50): 8.58 µM
COc1ccc(NC(=O)C(C(=O)Nc2ccc(OC)cc2)C23CC4CC(CC(C4)C2)C3)cc1	> 10	7.12	
CCc1cc(=O)n2ncc(-c3ccc(Cl)cc3)c2[nH]1	3.53		IC50 (HEPG2TOX_HILL_SLOPE 2.33, HEPG2TOX_R_SQUARED 0.563, PBLUC_HILL_SLOPE 7.25, PBLUC_R_SQUARED 0.422, read-out: LUCIFERASE INFECTION ASSAY - IC50): 2.61 µM
CCCCc1[nH]nc2ccnc(-c3cncc(OC)c3)c12	> 10		IC50 (HEPG2TOX_HILL_SLOPE 1.78, HEPG2TOX_R_SQUARED 0.895, read-out: LUCIFERASE INFECTION ASSAY - IC50): > 10 µM
COc1ccc(CNc2nc(C)nc3scc(-c4cccs4)c23)cn1	> 10		IC50 (HEPG2TOX_HILL_SLOPE 2.96, HEPG2TOX_R_SQUARED 0.967, read-out: LUCIFERASE INFECTION ASSAY - IC50): > 10 µM
CC(=O)c1ccc(NC(=O)N2[C@@H]3CC[C@@H](C3)[C@H]2c2nc3cccc(OCc4ccc(F)cc4)c3[nH]2)cc1	> 10		IC50 (FFLUC_HILL_SLOPE 7.32, FFLUC_R_SQUARED 0.306, PBLUC_HILL_SLOPE 12.2, PBLUC_R_SQUARED 0.357, read-out: LUCIFERASE INFECTION ASSAY - IC50): 9.72 µM
COCC(C)Nc1ncnc2scc(-c3ccc(OC)cc3)c12 (stereo not drawn)	4.03		IC50 (HEPG2TOX_HILL_SLOPE 7.42, HEPG2TOX_R_SQUARED 0.779, PBLUC_HILL_SLOPE 12.3, PBLUC_R_SQUARED 0.781, read-out: LUCIFERASE INFECTION ASSAY - IC50): 3.37 µM
O=C(CN1C(=O)CCOc2ccccc21)N1CCN(C(=O)C2COc3ccccc3O2)CC1 (stereo not drawn)	8.99	3.76	
COc1cc(OC)c(C(=O)/C=C/c2cccnc2)cc1Cl	3.76	3.3	
c1ccc(-c2nc(NCCCN3CCOCC3)c3cc(-c4ccccc4)sc3n2)cc1	> 10		IC50 (PBLUC_HILL_SLOPE 16.1, PBLUC_R_SQUARED 0.337, read-out: LUCIFERASE INFECTION ASSAY - IC50): 9.75 µM
FC(F)(F)Oc1ccc(Nc2cc(-c3cccc(Cl)c3)ncn2)cc1	> 9.02	> 9.02	
CCCOc1ccccc1NC(=O)COc1nnc2ccccn12	> 10	> 10	
O=C(Nc1ccc([N+](=O)[O-])cc1Br)C(Nc1ccc2c(c1)OCCO2)c1ccccc1 (stereo not drawn)	> 10		IC50 (PBLUC_HILL_SLOPE 1.35, PBLUC_R_SQUARED 0.497, read-out: LUCIFERASE INFECTION ASSAY - IC50): 2.53 µM
O=C(Nc1ccc(OC(F)(F)F)cc1)Nc1ccccc1SCC(O)Cn1ccc(C(F)(F)F)n1 (stereo not drawn)	> 6.34		IC50 (PBLUC_HILL_SLOPE 15.1, PBLUC_R_SQUARED 0.225, read-out: LUCIFERASE INFECTION ASSAY - IC50): 5.88 µM
